Assay results as given in patent US12060379B2, “Plasmalogen derivatives” (Institute of Rheological Functions of Food, priority 2018, dated 2024).

Columns and labels:
[1] = tested on: ERK (ERK1/2) phosphorylation in mouse neuroblastoma derived NEURO2A cell; test: ERK (ERK1/2) phosphorylation, Western Blotting, NEURO2A cells; format: cell-based; details: 5 μg/ml, 30 minutes, compared with s-Pls (FIG. 1)
Method: Neuronal cell lines (mouse neuroblastoma derived NEURO2A cell and human neuroblastoma derived SH-SY5Y cell) were cultivated in DMEM medium containing 10% FBS (fetal bovine serum) for 24 hours. […] At this stage, the same amount of protein (50 μg of protein extracts) was subjected to an analysis to compare phosphorylation of ERK (ERK ½) (p-ERK).
Neuronal cell lines (mouse neuroblastoma derived NEURO2A cell) were cultivated in DMEM medium containing 10% FBS (fetal bovine serum) for 24 hours. […] At this stage, the same amount of protein (50 μg of protein extracts) was subjected to an analysis to compare phosphorylation of ERK (ERK %) (p-ERK).

[2] = tested on: ERK (ERK1/2) phosphorylation in human neuroblastoma derived SH-SY5Y cell; test: ERK (ERK1/2) phosphorylation, Western Blotting, SH-SY5Y cells; format: cell-based; details: 5 μg/ml, 30 minutes, compared with s-Pls (FIG. 1)
Method: By using a neuronal cell line, a study was performed with respect to enhanced phosphorylation activities of ERK (ERK1/2) with compounds according to the present invention.
Neuronal cell lines (mouse neuroblastoma derived NEURO2A cell and human neuroblastoma derived SH-SY5Y cell) were cultivated in DMEM medium containing 10% FBS (fetal bovine serum) for 24 hours. Subsequently, they were cultivated in DMEM medium containing 2% FBS for overnight (18 hours), which were then processed with 5 μg/ml of s-Pls (scallop-derived Pls), Compound REO-002 according to the present invention, and Compound REO-003 according to the present invention for 30 minutes respectively, and cells were subjected to Western Blotting assay. At this stage, the same amount of protein (50 μg of protein extracts) was subjected to an analysis to compare phosphorylation of ERK (ERK ½) (p-ERK).
Neuronal cell lines (human neuroblastoma derived SH-SY5Y cell) were cultivated in DMEM medium containing 10% FBS (fetal bovine serum) for 24 hours. Subsequently, they were cultivated in DMEM medium containing 2% FBS for overnight (18 hours), which were then processed with 1 μg/ml, 5 μg/ml of Compounds REO-004-007 according to the present invention for 30 minutes respectively, and cells were subjected to Western Blotting assay. […]

CC/C=C\C/C=C\C/C=C\C/C=C\C/C=C\C/C=C\CCC(=O)O[C@@H](COCCCCCOc1ccccc1)COP(=O)(O)OCCN [REO-003]
enhanced phosphorylation activities of ERK (ERK1/2) (p-ERK) [1]: exhibit enhanced phosphorylation activities of ERK (ERK½) equivalent to s-Pls | enhanced phosphorylation activities of ERK (ERK1/2) (p-ERK) [2]: exhibit enhanced phosphorylation activities of ERK (ERK½) equivalent to s-Pls
